According to patent publication US7001907B2, “Peptide-containing α-ketoamide cysteine and serine protease inhibitors” (Cephaon, Inc., priority 1997, dated 2006):

target: T1, Recombinant human calpain I (Homo sapiens, UniProt P07384); test: Inhibition of cysteine protease activity: calpain I, Succ-Leu-Tyr-MNA substrate hydrolysis; format: biochemical; conditions: Table 2, linear α-ketoamides
T1 construct: made in house
T1 sequence (P07384 1-714): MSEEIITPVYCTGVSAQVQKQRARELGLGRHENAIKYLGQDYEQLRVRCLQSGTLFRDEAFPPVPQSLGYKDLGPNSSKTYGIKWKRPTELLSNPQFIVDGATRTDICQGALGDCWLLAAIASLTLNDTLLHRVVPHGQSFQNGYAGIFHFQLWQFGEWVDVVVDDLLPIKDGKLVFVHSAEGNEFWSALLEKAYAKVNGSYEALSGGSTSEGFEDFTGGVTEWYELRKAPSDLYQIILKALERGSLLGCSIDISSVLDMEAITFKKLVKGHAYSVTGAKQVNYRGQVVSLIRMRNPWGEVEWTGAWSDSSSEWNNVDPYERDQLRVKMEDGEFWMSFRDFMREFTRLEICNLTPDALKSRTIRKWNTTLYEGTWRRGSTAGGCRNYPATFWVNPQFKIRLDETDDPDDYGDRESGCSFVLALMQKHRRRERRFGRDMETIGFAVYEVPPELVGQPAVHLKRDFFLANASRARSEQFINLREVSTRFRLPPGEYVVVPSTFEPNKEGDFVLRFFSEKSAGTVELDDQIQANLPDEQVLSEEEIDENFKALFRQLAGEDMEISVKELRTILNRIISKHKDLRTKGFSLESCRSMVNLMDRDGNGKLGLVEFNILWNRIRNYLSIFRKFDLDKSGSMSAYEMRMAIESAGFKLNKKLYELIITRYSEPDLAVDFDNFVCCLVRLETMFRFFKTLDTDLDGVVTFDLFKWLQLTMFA
T1 sequence (P04632 1-268 partner): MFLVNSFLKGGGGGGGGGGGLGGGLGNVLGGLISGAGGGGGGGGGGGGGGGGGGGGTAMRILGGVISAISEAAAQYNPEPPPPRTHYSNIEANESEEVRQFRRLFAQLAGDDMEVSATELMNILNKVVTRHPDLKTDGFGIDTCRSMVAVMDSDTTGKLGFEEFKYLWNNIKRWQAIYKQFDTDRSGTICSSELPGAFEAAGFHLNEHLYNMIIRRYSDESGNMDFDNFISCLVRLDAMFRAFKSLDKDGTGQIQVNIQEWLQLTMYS
Protocol: To evaluate inhibitory activity, stock solutions (40 times concentrated) of each compound to be tested were prepared in 100% anhydrous DMSO and 5 μl of each inhibitor preparation were aliquoted into each of three wells of a 96-well plate. Recombinant human calpain I, prepared by the method of Meyer et al. (Biochem. J. 1996, 314: 511–519; incorporated herein by reference in its entirety), was diluted into assay buffer (i.e., 50 mM Tris, 50 mM NaCl, 1 mM EDTA, 1 mM EGTA, and 5 mM β-mercaptoethanol, pH 7.5, including 0.2 mM Succ-Leu-Tyr-MNA), and 175 μl was aliquoted into the same wells containing the independent inhibitor stocks as well as to positive control wells containing 5 μl DMSO, but no compound. To start the reaction, 20 μl of 50 mM CaCl2 in assay buffer was added to all wells of the plate, excepting three, which were used as background signal baseline controls. Substrate hydrolysis was monitored every 5 minutes for a total of 30 minutes. Substrate hydrolysis in the absence of inhibitor was linear for up to 15 minutes.
Inhibition of calpain I activity was calculated as the percent decrease in the rate of substrate hydrolysis in the presence of inhibitor relative to the rate in its absence. Comparison between the inhibited and control rates was made within the linear range for substrate hydrolysis. The IC50s of inhibitors (concentration yielding 50% inhibition) were determined from the percent decrease in rates of substrate hydrolysis in the presence of five to seven different concentrations of the test compound. The results were plotted as percent inhibition versus log inhibitor concentration, and the IC50 was calculated by fitting the data to the four-parameter logistic equation shown below using the program GraphPad Prism (GraphPad Software, Inc., San Diego, Calif.). y=d+[(a−d)/(1+(x/c)^b)]
The parameters a, b, c, and d are defined as follows: a is % inhibition in the absence of inhibitor, b is the slope, c is the IC50, and d is the % inhibition at an infinite concentration of inhibitor.

| Compound | IC50 |
| --- | --- |
| CS(=O)(=O)N[C@H](COCc1ccccc1)C(=O)N[C@@H](Cc1ccccc1)C(=O)C(=O)NCCNS(=O)(=O)c1ccc(Br)s1 [Compound 39] | 22 nM |
| CS(=O)(=O)N[C@H](COCc1ccccc1)C(=O)N[C@@H](Cc1ccccc1)C(=O)C(=O)NCCNS(=O)(=O)c1ccc(-c2ccon2)s1 [Compound 32] | 10 nM |
| CC(C)C[C@H](NC(=O)OCc1ccccc1)C(=O)N[C@@H](Cc1ccccc1)C(=O)C(=O)NCCNS(=O)(=O)c1ccccc1 [Compound 17] | 11 nM |

same assay, conditions: Table 3, branched-chain α-ketoamides

| Compound | IC50 |
| --- | --- |
| C[C@@H](CNS(=O)(=O)c1ccccc1)NC(=O)C(=O)[C@H](Cc1ccccc1)NC(=O)[C@@H](COCc1ccccc1)NS(C)(=O)=O [Compound 49] | 32 nM |
| C[C@H](CNC(=O)C(=O)[C@H](Cc1ccccc1)NC(=O)[C@@H](COCc1ccccc1)NS(C)(=O)=O)NS(=O)(=O)c1ccccc1 [Compound 48] | 43 nM |

same assay, conditions: Table 4, α-ketoamides

| Compound | IC50 |
| --- | --- |
| CS(=O)(=O)N[C@H](COCc1ccccc1)C(=O)N[C@@H](Cc1ccccc1)C(=O)C(=O)NCCCS(=O)(=O)Nc1ccccc1 [Compound 62] | 18 nM |
| CS(=O)(=O)N[C@@H](COCc1ccccc1)C(=O)N[C@@H](Cc1ccccc1)C(=O)C(=O)NCCNS(=O)(=O)c1ccccc1 [Compound 116] | 100 nM |
| COc1ccc(-c2ccc(S(=O)(=O)NCCNC(=O)C(=O)C(Cc3ccccc3)NC(=O)C(COCc3ccccc3)NS(C)(=O)=O)s2)cc1 (mixture of isomers) [Compound 82] | 13 nM |
| CS(=O)(=O)N[C@H](COCc1ccccc1)C(=O)N[C@@H](Cc1ccccc1)C(=O)C(=O)NCCNS(=O)(=O)c1ccc(-c2ccccc2CN2CCOCC2)s1 [Compound 93] | 40 nM |
| CS(=O)(=O)N[C@H](COCc1ccccc1)C(=O)N[C@@H](Cc1ccccc1)C(=O)C(=O)NCCNS(=O)(=O)c1ccc(-c2cccc(C=O)c2)s1 [Compound 52] | 5 nM |
| CC(=O)Nc1nc(C)c(S(=O)(=O)NCCNC(=O)C(=O)[C@H](Cc2ccccc2)NC(=O)[C@@H](COCc2ccccc2)NS(C)(=O)=O)s1 [Compound 96] | 23 nM |
| CS(=O)(=O)N[C@H](COCc1ccccc1)C(=O)N[C@@H](Cc1ccccc1)C(=O)C(=O)NCCNS(=O)(=O)c1ccc(-c2cccc(CN3CCCC3)c2)s1 [Compound 103] | 24 nM |
| CS(=O)(=O)N[C@H](COCc1ccccc1)C(=O)N[C@@H](Cc1ccccc1)C(=O)C(=O)NCCNS(=O)(=O)c1ccc(-c2cccc(CN3CCC(=O)CC3)c2)s1 [Compound 115] | 16 nM |

same assay, conditions: Table 5, achiral P2 mimetic α-ketoamides

| Compound | IC50 |
| --- | --- |
| O=C(CCCc1ccccc1)N[C@@H](Cc1ccccc1)C(=O)C(=O)NCCNS(=O)(=O)c1ccc(-c2ccccn2)s1 [Compound 149] | 1500 nM |
| Cc1ccc(Cl)c(C(=O)N[C@@H](Cc2ccccc2)C(=O)C(=O)NCCNS(=O)(=O)c2ccc(-c3ccccn3)s2)c1Cl [Compound 119] | 61 nM |
